# Laboratory results published in patent publication US8211883B2, “Topical delivery of phthalocyanines” (priority 2004, dated 2012).
# Marks after values point to notes of the source that are not given here.
# How the values were obtained:
# [1] = tested on: Chinese hamster V79-379 lung fibroblasts; experiment: Clonogenic cell survival of V79 cells after photodynamic treatment; assay type: cell-based; settings: for LD 90 (light dosage that kills 90% of cells): 18 hours, 675 nm red light; for CF10(AIPcCI)/CF10 (Pc): CF10 = product of intracellular concentration and fluence reducing survival to 10%; for F10(AIPcCI)/F10 (Pc): F10 = fluence reducing cell survival to 10%
# In short: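 V79 cells exposed to 0.5 or 1.0 μM phthalocyanine, then irradiated about 18 h later with increasing fluences of broad-band red light (600 nm high-pass filter). Survival scored as colonies of ≥50 cells. F10 taken from survival curves; CF10 from survival against intracellular concentration × fluence; 1 μM AlPcCl run as reference.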
# L5178Y cells = experiment: Induction of apoptosis (DNA ladder) in L5178Y cells after PDT; assay type: cell-based, Mouse; settings: for C × F Ld90, Minimum Demonstrated Condition to Induce Apoptosis: product of concentration and fluence
# Procedure: The cells were used while in exponential growth. Stock solutions of either 0.5 or 1 mM of PcIV, PcXII, PcX, PcXVIII were prepared in dimethylformamide unless otherwise indicated and added to the 10 mL medium at a rate of 1 μL per mL. After allowing 18 hours for uptake of the phthalocyanine into the cells, the flasks containing the cultures were placed on a glass exposure tray above a 500-W tungsten-halogen lamp. The exposure tray was fitted with a 600-nm high-pass filter. Flasks were exposed to various fluences of red light (up to 30 kJ/m^2) at a fluence rate of approximately 74 W/m^2). After irradiation, the cells were collected by centrifugation.
# The aliquots were plated in sufficient numbers to produce 50-200 colonies. The dishes were kept in an incubator at 37° C. in an atmosphere of 5% CO2 and 95% air for 10-14 days to allow viable cells to form colonies. Colonies were counted by eye. […] The plating efficiencies of the treated cells are normalized to the plating efficiencies of control cells in each experiment.
# Cells were treated with various concentrations of the compounds listed in the table and various light fluences. DNA gels were prepared and examined for the characteristic “ladder” pattern of DNA fragments. For each Pc, the minimum total PDT dose tested (calculated as the product of the minimum phthalocyanine concentration and the minimum fluence) which produced visible DNA fragments is recorded. […] PcXVIII was also added at 0.5 and 1.0 μM.
# RIF-1 tumors = experiment: RIF-1 implanted tumors, PcIV followed by multiple exposures to light; assay type: in vivo, C3H/HeN mice
# Procedure: To overcome the regrowth, RIF-1 tumors were implanted in C3H/HeN mice, and the mice were treated with PcIV followed by multiple exposures to light. For multiple exposures to light to be successful, the tumor tissue must retain sufficient levels of the photosensitizer over the exposure period.
# [2] = Retention of Pc IV in tumor tissue (pharmacokinetic data); assay type: in vivo; settings: after administration
# [3] = tested on: skin lesions (early mycosis fungoides, squamous cell carcinoma); experiment: Topical PcIV-PDT of skin lesions in patients; assay type: in vivo, human
# Procedure: PcIV solution concentrations were either 0.01 mg/mL or 0.05 mg/mL. One hour after administration of the PcIV solution, the skin lesions were exposed to a 675 nm laser, dose ranging from 50-100 J/cm^2. […] Two patients felt some heat over the treatment site during the first few minutes of laser exposure. […] Because Pc 4 is a photosensitizer, individual patient sun sensitivity was monitored by serial phototesting using solar simulated radiation. […] (see FIGS. 10a and 10b).
# [4] = tested on: Chinese hamster V79-379 lung fibroblasts; experiment: Uptake of phthalocyanines into V79 cells; settings: for Uptake Into V79 Cells, 1 μM / Uptake Into V79 Cells, 4 μM: 18 hours; for n Moles/10^6 Cells/μM (composite uptake value): V79 cells, average of all data, asterisk: listed value is for 1 μM, average would be higher
# In short: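 V79-379 cells were incubated with phthalocyanine for 18 h, typically at 1, 2 and/or 4 μM. Cells collected on filters were extracted into ethanol and absorbance read at the peak, usually 668 nm. Values are nmol per 10^6 cells, using ε 2.93×10^5.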
# [5] = 0.5 μM, VII# preplated data only, XXI* not totally soluble at 0.5 mM
# [6] = eleven patients, topical PcIV-PDT
compound,measurement,setting,value
"CN(C)CCC[Si](C)(C)O[Si]1(O)n2c3c4ccccc4c2N=C2N=C(N=c4c5ccccc5c(n41)=NC1=NC(=N3)c3ccccc31)c1ccccc12 (stereo not drawn) [Compound IV, HOSiPcOSi(CH3)2(CH2)3N(CH3)2]",LD 90 (light dosage that kills 90% of cells),[1]; [5],4 kj/m^2
same,CF10(AIPcCI)/CF10 (Pc),[1]; 0.5 μM,3.9
same,F10(AIPcCI)/F10 (Pc),[1]; 0.5 μM,1.85
same,CF10(AIPcCI)/CF10 (Pc),[1]; 1.0 μM,3.5
same,F10(AIPcCI)/F10 (Pc),[1]; 1.0 μM,4.25
same,"Fluence, Minimum Demonstrated Condition to Induce Apoptosis",L5178Y cells; 0.4 μM,3.0 kJ/m^2
same,"C × F Ld90, Minimum Demonstrated Condition to Induce Apoptosis",L5178Y cells; 0.4 μM,1.2 kJ/m^2
same,% of Mice Surviving,"RIF-1 tumors; 1 mg/kg in DPPC liposomes, 30 days, day of exposure 2",100%
same,% of Mice Surviving,"RIF-1 tumors; 1 mg/kg in DPPC liposomes, 30 days, days of exposure 2, 3, 4, 5, and 6",0%
same,% of Mice Surviving,"RIF-1 tumors; 1 mg/kg in DPPC liposomes, 30 days, days of exposure 2, 3, and 4",0%
same,% of Mice Surviving,"RIF-1 tumors; 1 mg/kg in DPPC liposomes, 30 days, days of exposure 2-6",0%
same,% of Mice Surviving,"RIF-1 tumors; 1 mg/kg in DPPC liposomes, 30 days, days of exposure 2 and 3",100%
same,% of Mice Surviving,"RIF-1 tumors; 1 mg/kg in DPPC liposomes, 30 days, days of exposure 2 and 7",100%
same,% of Mice Surviving,"RIF-1 tumors; 1 mg/kg in DPPC liposomes, 120 days, days of exposure 2, 3, 4, 5, and 6",0%
same,% of Mice Surviving,"RIF-1 tumors; 1 mg/kg in DPPC liposomes, 120 days, days of exposure 2, 3, and 4",0%
same,% of Mice Surviving,"RIF-1 tumors; 1 mg/kg in DPPC liposomes, 120 days, days of exposure 2-6",0%
same,% of Mice Surviving,"RIF-1 tumors; 1 mg/kg in corn oil, 15 days, day of exposure 2",100%
same,% of Mice Surviving,"RIF-1 tumors; 1 mg/kg in corn oil, 15 days, days of exposure 2, 3, 4, 5, and 6",100%
same,% of Mice Surviving,"RIF-1 tumors; 1 mg/kg in corn oil, 15 days, days of exposure 2, 3, and 4",100%
same,% of Mice Surviving,"RIF-1 tumors; 1 mg/kg in corn oil, 15 days, days of exposure 2-6",100%
same,% of Mice Surviving,"RIF-1 tumors; 1 mg/kg in corn oil, 15 days, days of exposure 2 and 3",100%
same,% of Mice Surviving,"RIF-1 tumors; 1 mg/kg in corn oil, 15 days, days of exposure 2 and 7",100%
same,tumor regrowth at sacrifice,"RIF-1 tumors; DPPC liposomes, three to five irradiations, 300 days after the light treatment",no evidence of tumor regrowth
same,tumor cure,"RIF-1 tumors; entrapped in DPPC liposomes, mice irradiated three, four or five times at an interval of 24 hours",complete tumor cure
same,tumor regrowth,"RIF-1 tumors; given in corn oil, all the multiple exposure protocols",regrowth of tumors was evident 15 days after photodynamic therapy
same,retention in tumor tissue,[2],retained in tumor tissue even after 7 days
same,clinical response of lesions (erythema and infiltration),[3]; [6],Two patients showed a minimal decrease in erythema and infiltration of their lesions
same,cures,[3]; [6],No cures have been achieved to date
same,TUNEL positivity in lesional skin biopsies,"[3]; one patient with some clinical response, 24 hours after treatment",increase in TUNEL positivity along the superficial portion of the lesion
same,changes in sunburn threshold or minimum erythema dose (MED),[3]; serial phototesting with solar simulated radiation,No significant changes were observed
same,adverse effects,"[3]; topical 0.01 or 0.05 mg/mL, 675 nm laser 50-100 J/cm^2 one hour later, up to two weeks",No significant adverse effects were observed
"CN(C)CCC[Si](C)(C)O[Si]1(O[Si](C)(C)CCCN(C)C)n2c3c4ccccc4c2N=C2N=C(N=c4c5ccccc5c(n41)=NC1=NC(=N3)c3ccccc31)c1ccccc12 [Compound XII, SiPc[OSi(CH3)2(CH2)3N(CH3)2]2]","Uptake Into V79 Cells, 1 μM",[4],2.1 ± 1.2 n Moles/10^6 cells
same,"Uptake Into V79 Cells, 4 μM",[4],4.6 ± 1.5 n Moles/10^6 cells
same,n Moles/10^6 Cells/μM (composite uptake value),[4],1.6 n Moles/10^6 Cells/μM
same,LD 90 (light dosage that kills 90% of cells),[1]; [5],3.3 kj/m^2
same,"Fluence, Minimum Demonstrated Condition to Induce Apoptosis",L5178Y cells; 0.4 μM,3.0 kJ/m^2
same,"C × F Ld90, Minimum Demonstrated Condition to Induce Apoptosis",L5178Y cells; 0.4 μM,1.2 kJ/m^2
"CCN(CCC[Si](C)(C)O[Si]1(O[Si](C)(C)CCCN(CC)CCN(C)C)n2c3c4ccccc4c2N=C2N=C(N=c4c5ccccc5c(n41)=NC1=NC(=N3)c3ccccc31)c1ccccc12)CCN(C)C [Compound XVIII, SiPc[OSi(CH3)2(CH2)3N(CH2CH3)(CH2)2N(CH3)2]2]","Uptake Into V79 Cells, 1 μM",[4],0.3 ± 0.1 n Moles/10^6 cells
same,"Uptake Into V79 Cells, 4 μM",[4],3.6 ± 0.6 n Moles/10^6 cells
same,n Moles/10^6 Cells/μM (composite uptake value),[4],0.3* n Moles/10^6 Cells/μM
same,LD 90 (light dosage that kills 90% of cells),[1]; 1 μM,7 kj/m^2
same,"Fluence, Minimum Demonstrated Condition to Induce Apoptosis",L5178Y cells; 0.5 μM,10.0 kJ/m^2
same,"C × F Ld90, Minimum Demonstrated Condition to Induce Apoptosis",L5178Y cells; 0.5 μM,5.0 kJ/m^2
same,"Fluence, Minimum Demonstrated Condition to Induce Apoptosis",L5178Y cells; 1.0 μM,3.0 kJ/m^2
same,"C × F Ld90, Minimum Demonstrated Condition to Induce Apoptosis",L5178Y cells; 1.0 μM,3.0 kJ/m^2
